Our source for the IC50 values is US20230174556A1, “COMPOUNDS AS PROTEIN KINASE INHIBITORS” (Fochon Biosciences, Ltd., priority 2020, published 2023).

Molecules are shown by their SMILES.

One may read the IC50 as the midpoint of a concentration-inhibition curve.

One test relates to OCI-LY10 (PI3Kδ dependent) cells. The test can be described thus: OCI-LY10 cell proliferation assay (MTS). In kind it is cell-based. Conditions: Homo sapiens, OCI-Ly10, 72 h, inhibition of OCI-LY10 cells proliferation, 72 h incubation, MTS readout at 490 nm. The protocol:
MTS testing kit was purchased from Promega (Madison, WI, USA). The RPMI-1640, Fetal bovine serum and Penicillin-Streptomycin were purchased from BI (Biological Industries, Beit Haemek, Israel). Dimethyl sulfoxide (DMSO) was purchased from Sigma (St. Louis., MO, USA). OCI-LY10 cells were cultured in RPMI1640 supplemented with Penicillin-Streptomycin and 10% FBS.
To investigate whether a compound is able to inhibit the activity of PI3Kδ in cells, a mechanism-based assay using OCI-LY10 (PI3Kδ dependent) cells was developed. In this assay, inhibition of PI3Kδ was detected by the inhibition of OCI-LY10 cells proliferation. Cells were plated into 96-well plates at a density of 10000 cells/well. Plates were incubated at 37° C., with 5 % CO2 for 4 h. Compounds were serially diluted and added to the plates with the final compound concentrations as 10000, 3333.3, 1111.1, […], 123.5, 41.2, 13.7, 4.6 and 1.5 nM. Plates were incubated at 37° C., with 5 % CO2 for 72 h. 20 µl MTS was added into each well and the plates were incubated at 37° C., with 5 % CO2 for exactly 2 h. The absorbance was measured by a microplate reader at 490 nm. IC50 was calculated using GraphPad Prism 5.0 software.
In turn, `C[C@@H](c1cc2scc(Cl)n2c(=O)c1-c1ccccc1)n1nc(-c2ccc(OC3CC3)c(F)c2)c2c(N)ncnc21` [Example 13, (S)-7-(1-(4-amino-3-(4-cyclopropoxy-3-fluorophenyl)-1H-pyrazolo[3,4-d]pyrimidin-1-yl)ethyl)-3-chloro-6-phenyl-5H-thiazolo[3,2-a]pyridin-5-one] gave an IC50 of 15 nM.

With `COc1ccc(-c2nn([C@@H](C)c3cc4scc(Cl)n4c(=O)c3-c3ccccc3)c3ncnc(N)c23)cc1NS(C)(=O)=O` [Example 44, (S)-N-(5-(4-amino-1-(1-(3-chloro-5-oxo-6-phenyl-5H-thiazolo[3,2-a]pyridin-7-yl)ethyl)-1H-pyrazolo[3,4-d]pyrimidin-3-yl)-2-methoxyphenyl)methanesul fonamide], the IC50 came to 40 nM.

The molecule `Cc1csc2cc([C@H](C)n3nc(-c4ccc(OC(C)C)nc4)c4c(N)ncnc43)c(-c3ccccc3)c(=O)n12` [Example 18, (S)-7-(1-(4-amino-3-(6-isopropoxypyridin-3-yl)-1H-pyrazolo[3,4-d]pyrimidin-1-yl)ethyl)-3-methyl-6-phenyl-5H-thi azolo[3,2-a]pyridin-5-one] registered an IC50 of 1 nM. This IC50 lies about 40-fold lower than the previous one.

Molecule `Cc1csc2cc([C@H](C)n3nc(-c4cnc(OC(C)C)c(F)c4)c4c(N)ncnc43)c(-c3cccc(F)c3)c(=O)n12` [Example 21, (S)-7-(1-(4-amino-3-(5-fluoro-6-isopropoxypyridin-3-yl)-1H-pyrazolo[3,4-d]pyrimidin-1-yl)ethyl)-6-(3-fluorophenyl)-3-methyl-5H-thiazolo[3,2-a]pyridi n-5-one] gave an IC50 of 1 nM.

Molecule `COc1ccc(-c2nn([C@@H](C)c3cc4scc(Cl)n4c(=O)c3-c3cccc(F)c3)c3ncnc(N)c23)cc1NS(C)(=O)=O` [Example 45, (S)-N-(5-(4-amino-1-(1-(3-chloro-6-(3-fluorophenyl)-5-oxo-5H-thiazolo[3,2-a]pyridin-7-yl)ethyl)-1H-pyrazolo[3,4-d]pyrimidin-3-yl)-2-methoxyphenyl)m ethanesulfonamide] yielded an IC50 of 41 nM.

Consider `Cc1csc2nc([C@H](C)n3nc(-c4ccc(OC(C)C)c(F)c4)c4c(N)ncnc43)c(-c3cccc(F)c3)c(=O)n12` [Example 7, (S)-7-(1-(4-amino-3-(3-fluoro-4-isopropoxyphenyl)-1H-pyrazolo[3,4-d]pyrimidin-1-yl)ethyl)-6-(3-fluorophenyl)-3-methyl-5H-thiazolo[3,2-a]pyrimidin-5-one], for which the IC50 was found to be 4 nM. This IC50 lies about 10-fold lower than the previous one.

With `Cc1csc2cc([C@H](C)n3nc(-c4cnc(OC(C)C)c(F)c4)c4c(N)ncnc43)c(-c3ccccc3)c(=O)n12` [Example 20, (S)-7-(1-(4-amino-3-(5-fluoro-6-isopropoxypyridin-3-yl)-1H-pyrazolo[3,4-d]pyrimidin-1-yl)ethyl)-3-methyl-6-phenyl-5H-thiazolo[3,2-a]pyridin-5-one], the IC50 turned out to be 1 nM.

Staying with this test, now noted: inhibition of OCI-LY10 cells proliferation, 72 h incubation, MTS readout at 490 nm.
The molecule `CC(C)Oc1ncc(-c2nn([C@@H](C)c3cc4scc(Cl)n4c(=O)c3-c3ccccc3)c3ncnc(N)c23)cn1` [Example 90, (S)-7-(1-(4-amino-3-(2-isopropoxypyrimidin-5-yl)-1H-pyrazolo[3,4-d]pyrimidin-1-yl)ethyl)-3-chloro-6-phenyl-5H-thiazolo[3,2-α]pyridin-5-one] registered an IC50 of 7 nM.

`Cc1csc2cc([C@H](C)n3nc(-c4cnc(OC(C)C)nc4)c4c(N)ncnc43)c(-c3cccc(F)c3)c(=O)n12` [Example 89, (S)-7-(1-(4-amino-3-(2-isopropoxypyrimidin-5-yl)-1H-pyrazolo[3,4-d]pyrimidin-1-yl)ethyl)-6-(3-fluorophenyl)-3-methyl-5H-thiazolo[3,2-α]pyridin-5-one] returned an IC50 of 73 nM.

Molecule `CC(C)Oc1ccc(-c2nn([C@@H](C)c3cc4scc(Cl)n4c(=O)c3-c3ccccc3)c3ncnc(N)c23)cc1C#N` [Example 84, (S)-5-(4-amino-l-(1-(3-chloro-5-oxo-6-phenyl-5H-thiazolo[3,2-α]pyridin-7-yl)ethyl)-1H-pyrazolo[3,4-d]pyrimidin-3-yl)-2-isopropoxy benzonitrile] came in with an IC50 of 1 nM.

`Cc1csc2cc([C@H](C)n3nc(-c4ccc(OC(C)C)c(C#N)c4)c4c(N)ncnc43)c(-c3cccc(F)c3)c(=O)n12` [Example 83, (S)-5-(4-amino-1-(1-(6-(3-fluorophenyl)-3-methyl-5-oxo-5H-thiazolo[3,2-α]pyridin-7-yl)ethyl)-1H-pyrazolo[3,4-d]pyrimidin-3-yl)-2-isopropoxybenzonitrile] gave an IC50 of 1 nM.

In turn, `CC(C)Oc1ccc(-c2nn([C@@H](C)c3cc4scc(Cl)n4c(=O)c3-c3cccc(F)c3)c3ncnc(N)c23)cn1` [Example 87, (S)-7-(1-(4-amino-3-(6-isopropoxypyridin-3-yl)-1H-pyrazolo[3,4-d]pyrimidin-1-yl)ethyl)-3-chloro-6-(3-fluoropheny 1)-5H-thiazol[3,2-α]pyridin-5-one] registered an IC50 of 64 nM.

Turning to `CC(C)Oc1ncc(-c2nn([C@@H](C)c3cc4scc(Cl)n4c(=O)c3-c3ccccc3)c3ncnc(N)c23)cc1F` [Example 94, (S)-7-(1-(4-amino-3-(5-fluoro-6-isopropoxypyridin-3-yl)-1H-pyrazolo[3,4-d]pyrimidin-1-yl)ethyl)-3-chloro-6-phenyl-5H-thiazolo[3,2-α]pyridin-5-one], the IC50 came out at 30 nM.

The molecule `Cc1csc2nc([C@H](C)n3nc(-c4ccc(OC(C)C)c(C#N)c4)c4c(N)ncnc43)c(-c3cccc(F)c3)c(=O)n12` [Example 101, (S)-5-(4-amino-1-(1-(6-(3-fluoropheny 1)-3-methyl-5-oxo-5H-thiazolo[3,2-α]pyrimidin-7-yl)ethyl)-1H-pyrazolo[3,4-d]pyrimidin-3-yl)-2-isopropoxybenzon itrile] registered an IC50 of 18 nM.

Consider `Cc1csc2cc([C@H](C)n3nc(-c4ccc(OC(C)C)c(C#N)c4)c4c(N)ncnc43)c(-c3ccccc3)c(=O)n12` [Example 82, (S)-5-(4-amino-1-(1-(3-methyl-5-oxo-6-phenyl-5H-thiazolo[3,2-α]pyridin-7-yl)ethyl)-1H-pyrazolo[3,4-d]pyrimidin-3-yl)-2-isopropoxybenzonitrile], for which the IC50 was 1 nM.

The molecule `Cc1csc2nc([C@H](C)n3nc(-c4cnc(OC(C)C)c(F)c4)c4c(N)ncnc43)c(-c3cccc(F)c3)c(=O)n12` [Example 105, (S)-7-(1-(4-amino-3-(5-fluoro-6-isopropoxypyridin-3-yl)-1H-pyrazolo[3,4-d]pyrimidin-1-yl)ethyl)-6-(3-fluorophenyl)-3-methyl-5H-thiazolo[3,2-α]pyrimidin-5-one] yielded an IC50 of 70 nM.

For the molecule `C[C@@H](c1cc2scc(Cl)n2c(=O)c1-c1ccccc1)n1nc(-c2ccc(OC(F)F)c(F)c2)c2c(N)ncnc21` [Example 67, (S)-7-(1-(4-amino-3-(4-(difluoromethoxy)-3-fluorophenyl)-1H-pyrazolo[3,4-d]pyrimidin-1-yl)ethyl)-3-chloro-6-ph enyl-5H-thiazolo[3,2-α]pyridin-5-one], the IC50 was found to be 1 nM.

As for `CC(C)Oc1ncc(-c2nn([C@@H](C)c3cc4scc(Cl)n4c(=O)c3-c3cccc(F)c3)c3ncnc(N)c23)cc1C#N` [Example 99, (S)-5-(4-amino-1-(1-(3-chloro-6-(3-fluorophenyl)-5-oxo-5H-thiazolo[3,2-α]pyridin-7-yl)ethyl)-1H-pyrazolo[3,4-d]pyrimidin-3-yl)-2-isopropoxynicotinoni trile], the IC50 worked out at 8 nM. This IC50 is about 8-fold higher than that of the molecule before.
